One experiment deals with T1, F508del (Homo sapiens, UniProt P13569, DEL508-508).
T1 construct: expressed in transfected cells
T1 sequence (P13569 with tags, fused parts or gaps DEL508-508): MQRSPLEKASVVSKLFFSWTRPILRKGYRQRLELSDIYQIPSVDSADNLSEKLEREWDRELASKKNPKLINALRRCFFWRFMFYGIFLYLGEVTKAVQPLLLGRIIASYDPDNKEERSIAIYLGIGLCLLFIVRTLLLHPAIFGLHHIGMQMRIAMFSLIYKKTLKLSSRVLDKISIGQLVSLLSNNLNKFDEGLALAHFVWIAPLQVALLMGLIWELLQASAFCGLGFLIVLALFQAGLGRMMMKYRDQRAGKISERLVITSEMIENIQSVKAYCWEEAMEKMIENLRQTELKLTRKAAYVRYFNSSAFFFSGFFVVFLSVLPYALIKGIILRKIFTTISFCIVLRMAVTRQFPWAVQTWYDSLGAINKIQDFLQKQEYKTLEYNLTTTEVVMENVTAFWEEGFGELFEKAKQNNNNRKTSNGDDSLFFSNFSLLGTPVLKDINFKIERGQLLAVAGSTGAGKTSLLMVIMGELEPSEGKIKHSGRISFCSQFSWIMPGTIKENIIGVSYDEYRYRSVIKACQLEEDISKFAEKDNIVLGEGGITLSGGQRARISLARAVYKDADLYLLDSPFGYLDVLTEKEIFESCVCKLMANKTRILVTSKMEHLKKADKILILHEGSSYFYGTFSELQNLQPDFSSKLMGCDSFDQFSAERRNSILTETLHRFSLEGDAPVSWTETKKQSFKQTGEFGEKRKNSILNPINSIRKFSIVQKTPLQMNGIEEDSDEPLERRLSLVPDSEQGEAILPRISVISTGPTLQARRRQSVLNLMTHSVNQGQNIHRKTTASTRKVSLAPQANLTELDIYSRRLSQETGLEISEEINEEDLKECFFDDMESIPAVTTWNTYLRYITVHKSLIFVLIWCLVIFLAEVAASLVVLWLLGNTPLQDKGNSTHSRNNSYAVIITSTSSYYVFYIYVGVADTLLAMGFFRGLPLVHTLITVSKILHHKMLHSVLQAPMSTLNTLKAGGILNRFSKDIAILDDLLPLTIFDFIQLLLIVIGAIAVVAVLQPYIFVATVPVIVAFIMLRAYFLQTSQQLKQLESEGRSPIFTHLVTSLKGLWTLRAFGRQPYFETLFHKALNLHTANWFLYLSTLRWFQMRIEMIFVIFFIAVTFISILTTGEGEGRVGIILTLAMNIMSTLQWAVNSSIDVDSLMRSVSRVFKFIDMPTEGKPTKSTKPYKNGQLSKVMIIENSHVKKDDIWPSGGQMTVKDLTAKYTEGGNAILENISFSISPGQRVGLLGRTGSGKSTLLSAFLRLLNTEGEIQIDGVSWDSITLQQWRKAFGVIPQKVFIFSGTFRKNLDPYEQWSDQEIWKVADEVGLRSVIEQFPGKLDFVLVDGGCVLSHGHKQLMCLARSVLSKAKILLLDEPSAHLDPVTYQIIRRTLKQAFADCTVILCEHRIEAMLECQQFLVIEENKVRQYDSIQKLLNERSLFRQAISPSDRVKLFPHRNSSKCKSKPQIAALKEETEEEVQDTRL
The experiment in a line: Protocol 2: FRET membrane potential optical assay (VIPR), identification of correction compounds. The class given is cell-based. The conditions noted are these: F508del CFTR modulator activity; compounds of Table 1. An outline of the steps: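 Single-addition HTS format: F508del-expressing NIH3T3 cells pre-incubated 16 hrs at 37° C. ± compound, with 27° C. culture as positive control. Channel activation by forskolin 10 μM and genistein 20 μM upon switch to gluconate bath, pH 7.4; read-out is FRET-based depolarization signal.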
Usually EC30 stands for the point of the concentration-response curve where the effect stands at 30%. In the case of `[2H]C([2H])([2H])C([2H])(COc1cc(F)cc(-c2ccc(C(=O)NS(=O)(=O)c3cccc(N)n3)c(N3C[C@@H](C)CC3(C)C)n2)c1)C([2H])([2H])[2H]` [Compound 2708, N-[(6-amino-2-pyridyl)sulfonyl]-6-[3-fluoro-5-[2,3,3,3-tetradeuterio-2-(trideuteriomethyl)propoxy]phenyl]-2-[(4S)-2,2,4-trimethylpyrrolidin-1-yl]pyridine-3-carboxamide], the EC30 entry is “+++ (“+++” means <3 uM)”.

Staying with this experiment, now noted: F508del CFTR modulator activity; compounds of Table 1; read-out: EC30.
Take `COc1ncc(-c2ccc(C(=O)NS(=O)(=O)c3cccnc3N)c(N3C[C@@H](C)CC3(C)C)n2)cc1F` [Compound 2628, N-[(2-amino-3-pyridyl)sulfonyl]-6-(5-fluoro-6-methoxy-3-pyridyl)-2-[(4S)-2,2,4-trimethylpyrrolidin-1-yl]pyridine-3-carboxamide]: the EC30 was < 3000 nM.

In the case of `C[C@@H]1CN(c2nc(-c3ccc4c(ccn4C)c3)ccc2C(=O)NS(=O)(=O)c2cccnc2N)C(C)(C)C1` [Compound 2352, N-[(2-amino-3-pyridyl)sulfonyl]-6-(1-methylindol-5-yl)-2-[(4S)-2,2,4-trimethylpyrrolidin-1-yl]pyridine-3-carboxamide], the EC30 was < 3000 nM.

Regarding `CC1CN(c2ncccc2C(=O)NS(=O)(=O)c2cccc(NCCc3ccccn3)n2)C(C)(C)C1` (stereo not drawn) [Compound 2359, N—[[6-[2-(2-pyridyl)ethylamino]-2-pyridyl]sulfonyl]-2-(2,2,4-trimethylpyrrolidin-1-yl)pyridine-3-carboxamide], the EC30 was in the range of 3000 to 10000 nM.

In the case of `CC#CCOc1cccc(S(=O)(=O)NC(=O)c2cccnc2N2CC(C)CC2(C)C)n1` (stereo not drawn) [Compound 2741], the EC30 lay in the range of 3000 to 10000 nM.

Consider `CC1CN(c2ncccc2C(=O)NS(=O)(=O)c2cccc(Oc3ccc(Cl)c(Cl)c3)n2)C(C)(C)C1` (stereo not drawn) [Compound 2061, N—[[6-(3,4-dichlorophenoxy)-2-pyridyl]sulfonyl]-2-(2,2,4-trimethylpyrrolidin-1-yl)pyridine-3-carboxamide], for which the EC30 was < 3000 nM.

As to `CC(C)COc1cc(F)cc(-c2ccc(C(=O)NS(=O)(=O)c3cccc(N)n3)c(N3CC(F)(F)C3)n2)c1` [Compound 2155, N-[(6-amino-2-pyridyl)sulfonyl]-2-(3,3-difluoroazetidin-1-yl)-6-(3-fluoro-5-isobutoxy-phenyl)pyridine-3-carboxamide], the EC30 fell in the range of 3000 to 10000 nM.

`CC1CN(c2ncccc2C(=O)NS(=O)(=O)c2cccc(N3CCc4ccccc43)n2)C(C)(C)C1` (stereo not drawn) [Compound 2255, N-[(6-indolin-1-yl-2-pyridyl)sulfonyl]-2-(2,2,4-trimethylpyrrolidin-1-yl)pyridine-3-carboxamide]: the EC30 was < 3000 nM.

For the compound `CC(C)COc1cc(F)cc(-c2ccc(C(=O)NS(=O)(=O)c3cccc(N)n3)c(N(C)CC3CCCCC3)n2)c1` [Compound 2289, N-[(6-amino-2-pyridyl)sulfonyl]-2-[cyclohexylmethyl(methyl)amino]-6-(3-fluoro-5-isobutoxy-phenyl)pyridine-3-carboxamide], the EC30 is < 3000 nM.

Turning to `CC(C)COc1cc(F)cc(-c2ccc(C(=O)NS(=O)(=O)c3cccc(N)n3)c(N3CCC(C)C(C)C3)n2)c1` (single isomer, unassigned) [Compound 2062, N-[(6-amino-2-pyridyl)sulfonyl]-2-(3,4-dimethyl-1-piperidyl)-6-(3-fluoro-5-isobutoxy-phenyl)pyridine-3-carboxamide], the EC30 is < 3000 nM.

For `CC1CN(c2ncccc2C(=O)NS(=O)(=O)c2cccc(N3CCC(F)(F)C3)n2)C(C)(C)C1` (stereo not drawn) [Compound 2166, N—[[6-(3,3-difluoropyrrolidin-1-yl)-2-pyridyl]sulfonyl]-2-(2,2,4-trimethylpyrrolidin-1-yl)pyridine-3-carboxamide], the EC30 was 3000 to 10000 nM.

Turning to `COc1ccc(-c2ccc(C(=O)NS(=O)(=O)N3CC[C@H](N)C3)c(N3C[C@@H](C)CC3(C)C)n2)cc1` [Compound 2327, N-[(3S)-3-aminopyrrolidin-1-yl]sulfonyl-6-(4-methoxyphenyl)-2-[(4S)-2,2,4-trimethylpyrrolidin-1-yl]pyridine-3-carboxamide], the EC30 lay within 3000 to 10000 nM.

With `CCOCCOCCOc1ccc(C(=O)NS(=O)(=O)c2cccnc2N)c(N2C[C@@H](C)CC2(C)C)n1` [Compound 2700], the EC30 was < 3000 nM.

`CC1CN(c2ncccc2C(=O)NS(=O)(=O)c2cccc(OCc3ccc(Cl)c(Cl)c3)n2)C(C)(C)C1` (stereo not drawn) [Compound 2402, N—[[6-[(3,4-dichlorophenyl)methoxy]-2-pyridyl]sulfonyl]-2-(2,2,4-trimethylpyrrolidin-1-yl)pyridine-3-carboxamide]: the EC30 is < 3000 nM.

Consider `CC1CCN(c2cccc(S(=O)(=O)NC(=O)c3cccnc3N3CC(C)CC3(C)C)n2)CC1` (stereo not drawn) [Compound 2330, N—[[6-(4-methyl-1-piperidyl)-2-pyridyl]sulfonyl]-2-(2,2,4-trimethylpyrrolidin-1-yl)pyridine-3-carboxamide], for which the EC30 is < 3000 nM.

As for `Cc1ccnc(Nc2cccc(S(=O)(=O)NC(=O)c3cccnc3N3CC(C)CC3(C)C)n2)c1` (stereo not drawn) [Compound 2082, N—[[6-[(4-methyl-2-pyridyl)amino]-2-pyridyl]sulfonyl]-2-(2,2,4-trimethylpyrrolidin-1-yl)pyridine-3-carboxamide], the EC30 was 3000 to 10000 nM.

Take `CCOc1ccc(Nc2cccc(S(=O)(=O)NC(=O)c3cccnc3N3CC(C)CC3(C)C)n2)cc1` (stereo not drawn) [Compound 2214, N—[[6-(4-ethoxyanilino)-2-pyridyl]sulfonyl]-2-(2,2,4-trimethylpyrrolidin-1-yl)pyridine-3-carboxamide]: the concentration for an effect of 30% (EC30) is < 3000 nM.

As to `CC1CN(c2ncccc2C(=O)NS(=O)(=O)c2cccc(Nc3ccc(Cl)cn3)n2)C(C)(C)C1` (stereo not drawn) [Compound 2656, N—[[6-[(5-chloro-2-pyridyl)amino]-2-pyridyl]sulfonyl]-2-(2,2,4-trimethylpyrrolidin-1-yl)pyridine-3-carboxamide], the EC30 is < 3000 nM.

Take `CC1CN(c2ncccc2C(=O)NS(=O)(=O)c2cccc(O[C@H](C)Cc3ccccc3)n2)C(C)(C)C1` (stereo partly drawn) [Compound 2470, N—[[6-[(1R)-1-methyl-2-phenyl-ethoxy]-2-pyridyl]sulfonyl]-2-(2,2,4-trimethylpyrrolidin-1-yl)pyridine-3-carboxamide]: the EC30 is < 3000 nM.

Still in this experiment, the particulars now being: Table 3; compounds of Table 1 as modulators of CFTR activity; protocol not stated.
For `CC(C)COc1cc(F)cc(-c2ccc(C(=O)NS(=O)(=O)c3ccn[nH]3)c(N3CCC[C@@H](C)C3)n2)c1` [Compound 668, 6-(3-fluoro-5-isobutoxy-phenyl)-2-[(3R)-3-methyl-1-piperidyl]-N-(1H-pyrazol-5-ylsulfonyl)pyridine-3-carboxamide], the EC30 entry is listed as “+++ (“+++” means <3 uM)”.

In the case of `CCOc1ccc(-c2ccc(C(=O)NS(=O)(=O)c3cccc(N)n3)c(Oc3c(C)cc(C)cc3C)n2)cc1F` [Compound 161, N-[(6-amino-2-pyridyl)sulfonyl]-6-(4-ethoxy-3-fluoro-phenyl)-2-(2,4,6-trimethylphenoxy)pyridine-3-carboxamide], the EC30 result is “+++ (“+++” means <3 uM)”.

On to `Cc1cc(C)c(Oc2nc(C(C)(C)C)ccc2C(=O)NS(=O)(=O)c2ccnc(N)c2)c(C)c1` [Compound 283, N-[(2-amino-4-pyridyl)sulfonyl]-6-tert-butyl-2-(2,4,6-trimethylphenoxy)pyridine-3-carboxamide], for which the EC30 result is given as “+++ (“+++” means <3 uM)”.

As to `CC(C)Oc1ccc(-c2ccc(C(=O)NS(=O)(=O)c3cccc(N)n3)c(N3CCCC(F)C3)n2)cn1` (stereo not drawn) [Compound 745, N-[(6-amino-2-pyridyl)sulfonyl]-2-(3-fluoro-1-piperidyl)-6-(6-isopropoxy-3-pyridyl)pyridine-3-carboxamide], the EC30 result was “++ (“++” means between 3 uM and 10 uM)”.

Regarding `Cc1cc(C)c(Cn2c(C(=O)NS(=O)(=O)c3cccc(N)c3)c(C)c3ccccc32)c(C)c1` [Compound 118, N-(3-aminophenyl)sulfonyl-3-methyl-1-[(2,4,6-trimethylphenyl)methyl]indole-2-carboxamide], the EC30 entry is “++ (“++” means between 3 uM and 10 uM)”.

For `CC(C)(C)c1ccc(C(=O)NS(=O)(=O)c2ccc(N)cc2)c(C2CCCCC2)n1` [Compound 537, N-(4-aminophenyl)sulfonyl-6-tert-butyl-2-cyclohexyl-pyridine-3-carboxamide], the EC30 entry was “+++ (“+++” means <3 uM)”.

For `CC(C)Oc1ccc(-c2ccc(C(=O)NS(=O)(=O)c3cccc(N)n3)c(N3CCc4ccccc43)n2)cn1` [Compound 588, N-[(6-amino-2-pyridyl)sulfonyl]-2-indolin-1-yl-6-(6-isopropoxy-3-pyridyl)pyridine-3-carboxamide], the EC30 entry is “++ (“++” means between 3 uM and 10 uM)”.

As to `Cc1cc(C)c(Oc2nc(N3CCCCC3)ccc2C(=O)NS(=O)(=O)c2cccc(N)n2)c(C)c1` [Compound 785, N-[(6-amino-2-pyridyl)sulfonyl]-6-(1-piperidyl)-2-(2,4,6-trimethylphenoxy)pyridine-3-carboxamide], the EC30 result was “+++ (“+++” means <3 uM)”.

Take `Cc1cc(C)c(Oc2ccc(C(C)(C)C)nc2C(=O)NS(=O)(=O)c2ccccc2)c(C)c1` [Compound 350, N-(benzenesulfonyl)-6-tert-butyl-3-(2,4,6-trimethylphenoxy)pyridine-2-carboxamide]: the EC30 entry is “+++ (“+++” means <3 uM)”.

In the case of `CC(C)(C)c1cc(C(=O)NS(=O)(=O)c2cccc(N)c2)n(Cc2c(F)cccc2C(F)(F)F)n1` [Compound 239, N-(3-aminophenyl)sulfonyl-5-tert-butyl-2-[[2-fluoro-6-(trifluoromethyl)phenyl]methyl]pyrazole-3-carboxamide], the concentration for an effect of 30% (EC30) result was “+++ (“+++” means <3 uM)”.

As to `CCc1ccc2c(c1)cc(C(=O)NS(=O)(=O)c1cccc(N)n1)n2Cc1c(C)cc(C)cc1C` [Compound 179, N-[(6-amino-2-pyridyl)sulfonyl]-5-ethyl-1-[(2,4,6-trimethylphenyl)methyl]indole-2-carboxamide], the EC30 entry is “+++ (“+++” means <3 uM)”.
